These results are taken from ChEMBL document CHEMBL1158341, “A macrolactone from benzo[a]phenazine with potent activity against Mycobacterium tuberculosis” (2009).

≈ marks a conversion by molar mass, not a printed value. Calls of active or inactive are those of the source. No cut-off for these calls is given here.

The subject of experiment [1] is Mycobacterium tuberculosis. As to the kind of experiment: Antimycobacterial activity against Mycobacterium tuberculosis H37Rv ATCC 27294 after 24 hrs by microplate alamar blue assay. It counts as functional. A general note: Alamar Blue is a resazurin reagent that responds to reducing activity.
Experiment [2] deals with Mycobacterium tuberculosis. Nature of the experiment: Antimycobacterial activity against Mycobacterium tuberculosis H37Rv ATCC 27294 at 100 ug/mL after 24 hrs by microplate alamar blue assay. It is filed as functional.

With `CC1(C)CCC(=O)c2nccnc2-c2ccccc2C(=O)O1`, the minimal inhibitory concentration (MIC) (in general, the lowest concentration found to suppress growth) in experiment [1] is 50 µg/mL (≈ 169 µM). In addition, the inhibition (in general, the relative decrease from the control value, in per cent) at 100 µg/mL in experiment [2] turned out to be 90%.
Consider `CC1(C)CC(=O)c2nc3ccccc3nc2-c2ccccc2C(=O)O1`, for which, in experiment [1], the lowest concentration to inhibit growth (MIC) was 100 µg/mL (≈ 301 µM). The same compound registered an inhibition at 100 µg/mL in experiment [2] of 90%.
In the same order, the values of `CC1(C)CCC(=O)c2nc3ccccc3nc2-c2ccccc2C(=O)O1` are 0.62 µg/mL (≈ 1.79 µM) and 90%.
Turning to `CC1(C)OC(=O)c2ccccc2-c2c(nc3ccccc3[n+]2[O-])C(=O)CC1Br` (stereo unspecified), 25 µg/mL (≈ 56.7 µM) was the least that counted as inhibitory in experiment [1] (MIC). Further, in experiment [2], the inhibition at 100 µg/mL amounted to 90%.
For the compound `CO[C@H]1/C=C/O[C@@]2(C)Oc3c(C)c(O)c4c(O)c(c(/C=N/N5CCN(C)CC5)c(O)c4c3C2=O)NC(=O)/C(C)=C\C=C\[C@H](C)[C@H](O)[C@@H](C)[C@@H](O)[C@@H](C)[C@H](OC(C)=O)[C@@H]1C` [RIFAMPIN], 1 µg/mL (≈ 1.22 µM) was the least that counted as inhibitory in experiment [1] (MIC).
For the compound `CC(C)(O)CCCC1(O)C(=O)c2ccccc2-c2nc3ccccc3nc21` (stereo unspecified), the MIC entry in experiment [1] was “inactive”. In experiment [2], this compound yielded an inhibition at 100 µg/mL of 90%.
